Target: T1, BACE2 (Rattus norvegicus, UniProt Q6IE75)
T1 construct: endogenous cellular BACE2 in the Ins1e rat cell line; endogenous in cells; host or cells: INS-TMEM27 (INS1e-derived rat cell line with doxycycline-inducible full-length hTMEM27)
T1 sequence (Q6IE75 63-514): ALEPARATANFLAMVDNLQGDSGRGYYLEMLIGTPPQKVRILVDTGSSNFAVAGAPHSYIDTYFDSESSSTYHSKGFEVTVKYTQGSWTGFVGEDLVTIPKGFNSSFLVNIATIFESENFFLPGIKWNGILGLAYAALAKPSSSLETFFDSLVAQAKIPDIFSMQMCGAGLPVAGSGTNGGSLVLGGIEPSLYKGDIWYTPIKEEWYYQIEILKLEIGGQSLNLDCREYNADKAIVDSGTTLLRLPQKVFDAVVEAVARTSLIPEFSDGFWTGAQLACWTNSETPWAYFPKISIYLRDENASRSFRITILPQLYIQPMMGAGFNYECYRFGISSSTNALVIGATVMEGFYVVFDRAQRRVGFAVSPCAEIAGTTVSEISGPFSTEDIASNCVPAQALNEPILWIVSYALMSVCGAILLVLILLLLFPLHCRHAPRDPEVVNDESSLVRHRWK
Assay: Assay for BACE inhibition by measuring cellular TMEM27 cleavage
Assay type: cell-based
Settings: INS-TMEM27 (INS1e-derived) cells, endogenous BACE2, shed human TMEM27 in medium by ELISA
From the text: Assay for BACE Inhibition by Measuring Cellular TMEM27 Cleavage:
The assay uses the principle of inhibition of human TMEM27 cleavage by endogenous cellular BACE2 in the Ins1e rat cell line and shedding from the cell surface into the culture medium, followed by detection in an ELISA assay. Inhibition of BACE2 prevents the cleavage and shedding in a dose-dependent manner.
The stable cell line “INS-TMEM27” represents an INS1e-derived cell line with inducible expression (using the TetOn system) of full-length hTMEM27 in a doxycycline-dependent manner.
INS-TMEM27 cells are seeded in 96-well plates. After 2 days in culture, BACE2 inhibitor is added in a range of concentrations as required by the assay and after a further two hours, doxycycline is added to a final concentration of 500 ng/ml. The cells are incubated for a further 46 hours and the supernatant harvested for detection of shed TMEM27.
An ELISA assay (using a pair of mouse anti-human-TMEM27 antibodies, raised against the extracellular domain of TMEM27) is used for detection of TMEM27 in the culture medium. An EC50 for BACE2 inhibition is calculated using the ELISA readout for each inhibitor concentration with standard curve-fitting software such as XLFit for the Excel spreadsheet program.

IC50: 690 nM
SMILES: NC1=N[C@@]2(c3cc(NC(=O)c4ccc(Cl)cn4)ccc3Cl)C[C@H]2CCS1 (racemic) [Example 4, N-(3-((1SR,7SR)-3-amino-4-thia-2-azabicyclo[5.1.0]oct-2-en-1-yl)-4-chlorophenyl)-5-chloropicolinamide]

— US8927535B2, “Cyclopropyl-fused-1,3-thiazepines as BACE1 and/or BACE2 inhibitors” (Hoffman-La Roche Inc., priority 2011, dated 2015)
